Assay results from patent US10047050B2, “3,4-di-substituted pyridine compound, methods of using and compositions comprising the same” (ARDEA BIOSCIENCES, INC., priority 2011, dated 2018).
Values joined by “and” are separate entries in the source; they are usually repeats but may differ in a detail not shown here. Equal values may be shown once.

System: serum uric acid
Assay: Single-dose Phase I clinical trial, serum uric acid (sUA) 0-72 hours post-dose
Format: in vivo, human
Details: for % sUA change (from baseline) / % sUA reduction (from baseline): individual subjects 3-8; for % sUA change (from baseline), Mean (3-8) / Absolute sUA concentration, Mean (3-8) / % sUA reduction (from baseline), Mean (3-8): mean of subjects 3-8
Protocol: A Phase 1, Randomized, Double-Blind, Placebo-Controlled Study to Evaluate Safety, Tolerability, Pharmacokinetics and Preliminary Food Effect of Single Doses of a URAT1 Inhibitor, in Healthy Adult Male Volunteers.
To assess safety, tolerability, pharmacokinetics and uricosuric effects after oral administration as single doses of a tablet formulation and the effect of food on bioavailability.
Subjects receive a single, oral dose of active or placebo, at the following doses:
Group 4: 20 mg (fasted) [sentinel dosing];
48 subjects in 6 dose groups, 8 subjects/group, are randomized 3:1 to receive active (6/group) or placebo (2/group). All study procedures are the same regardless of whether subject receives active or placebo. The total duration of subject participation, including screening period, is ˜2-4 weeks, and the total volume of blood collected from each subject during the entire study <500 mL, (less than typically collected during a volunteer blood donation).
5 mg and 20 mg, active and placebo, tablets packaged in 35 count HDPE bottles, stored at controlled room temperature (15-30° C.). Placebo tablets are designed to match the active tablets—identical size, form, taste, and color, and containing the same excipients. 2 mg was dosed as an oral solution.
Subjects dosed on the morning of Day 1 with ˜240 mL of room temp water.
Fasted: subjects are dosed after overnight fast >10 hours and remain fasted until >4 hours post-dose.
Fed: subjects fast overnight for >10 hours, then are dosed 30 mins after completing standard moderate fat breakfast (no high fructose corn syrup).
Serum samples are collected at:
PD samples are frozen (−20° C.) and stored; all samples from a given subject assayed in a single analytical run.

[1] = Group 1, 2 mg single oral dose, fasted, 0 h (baseline)
[2] = Group 1, 2 mg single oral dose, fasted, 6 h post-dose
[3] = Group 1, 2 mg single oral dose, fasted, 12 h post-dose
[4] = Group 1, 2 mg single oral dose, fasted, 24 h post-dose
[5] = Group 1, 2 mg single oral dose, fasted, 30 h post-dose
[6] = Group 1, 2 mg single oral dose, fasted, 36 h post-dose
[7] = Group 1, 2 mg single oral dose, fasted, 48 h post-dose
[8] = Group 1, 2 mg single oral dose, fasted, 54 h post-dose
[9] = Group 1, 2 mg single oral dose, fasted, 60 h post-dose
[10] = Group 1, 2 mg single oral dose, fasted, 72 h post-dose
[11] = Group 2, 5 mg single oral dose, fasted, 0 h (baseline)
[12] = Group 2, 5 mg single oral dose, fasted, 6 h post-dose
[13] = Group 2, 5 mg single oral dose, fasted, 12 h post-dose
[14] = Group 2, 5 mg single oral dose, fasted, 24 h post-dose
[15] = Group 2, 5 mg single oral dose, fasted, 30 h post-dose
[16] = Group 2, 5 mg single oral dose, fasted, 36 h post-dose
[17] = Group 2, 5 mg single oral dose, fasted, 48 h post-dose
[18] = Group 2, 5 mg single oral dose, fasted, 54 h post-dose
[19] = Group 2, 5 mg single oral dose, fasted, 60 h post-dose
[20] = Group 2, 5 mg single oral dose, fasted, 72 h post-dose
[21] = Group 3, 5 mg single oral dose, fed, 0 h (baseline)
[22] = Group 3, 5 mg single oral dose, fed, 6 h post-dose
[23] = Group 3, 5 mg single oral dose, fed, 12 h post-dose
[24] = Group 3, 5 mg single oral dose, fed, 24 h post-dose
[25] = Group 3, 5 mg single oral dose, fed, 30 h post-dose
[26] = Group 3, 5 mg single oral dose, fed, 36 h post-dose
[27] = Group 3, 5 mg single oral dose, fed, 48 h post-dose

In the case of `CC(C)(Sc1ccncc1-c1ccc(C#N)c2ccccc12)C(=O)O` [2-((3-(4-cyanonaphthalen-1-yl)pyridin-4-yl)thio)-2-methylpropanoic acid], the “% sUA change (from baseline)” value [1] is reported as 0%, the “% sUA change (from baseline), Mean (3-8)” value [1] is reported as 0% and the “Absolute sUA concentration, Mean (3-8)” value [1] is reported as 6.5 mg/dL. For the same compound, the “% sUA change (from baseline)” value [2] was −30.4% and −47.5% and −35.5% and −37.8% and −38.2% and −33.3%, the “% sUA change (from baseline), Mean (3-8)” value [2] was −10.2% and the “Absolute sUA concentration, Mean (3-8)” value [2] was 5.8 mg/dL. The “% sUA change (from baseline)” value [3] was −44.6% (2×) and −52.5% and −48.4% and −43.4% and −42.3%, the “% sUA change (from baseline), Mean (3-8)” value [3] was −15.6% and the “Absolute sUA concentration, Mean (3-8)” value [3] was 5.5 mg/dL. For the same compound, the “% sUA change (from baseline)” value [4] was −41.1% and −44.1% and −43.5% and −40.5% and −43.4% and −46.2%, the “% sUA change (from baseline), Mean (3-8)” value [4] was −8.1% and the “Absolute sUA concentration, Mean (3-8)” value [4] was 6.0 mg/dL. For the same compound, the “% sUA change (from baseline)” value [5] was −46.4% and −52.5% and −43.5% and −44.6% and −44.7% and −52.6%, the “% sUA change (from baseline), Mean (3-8)” value [5] was −13.5% and the “Absolute sUA concentration, Mean (3-8)” value [5] was 5.6 mg/dL. For the same compound, the “% sUA change (from baseline)” value [6] was −48.2% and −52.5% and −45.2% and −45.9% and −46.1% and −52.6%, the “% sUA change (from baseline), Mean (3-8)” value [6] was −18.8% and the “Absolute sUA concentration, Mean (3-8)” value [6] was 5.3 mg/dL. The “% sUA change (from baseline)” value [7] was −32.1% and −42.4% and −38.7% and −36.5% and −35.5% and −48.7%, the “% sUA change (from baseline), Mean (3-8)” value [7] was −13.3% and the “Absolute sUA concentration, Mean (3-8)” value [7] was 5.6 mg/dL. For the same compound, the “% sUA change (from baseline)” value [8] was −33.9% and −45.8% and −37.1% and −27% and −32.9% and −48.7%, the “% sUA change (from baseline), Mean (3-8)” value [8] was −19.3% and the “Absolute sUA concentration, Mean (3-8)” value [8] was 5.3 mg/dL. For the same compound, the “% sUA change (from baseline)” value [9] was −35.7% and −45.8% and −35.5% and −29.7% and −32.9% and −46.2%, the “% sUA change (from baseline), Mean (3-8)” value [9] was −21.3% and the “Absolute sUA concentration, Mean (3-8)” value [9] was 5.1 mg/dL. The “% sUA change (from baseline)” value [10] was −23.2% and −30.5% and −16.1% and −14.9% and −15.8% and −28.2%, the “% sUA change (from baseline), Mean (3-8)” value [10] was −15.5% and the “Absolute sUA concentration, Mean (3-8)” value [10] was 5.5 mg/dL. For the same compound, the “% sUA reduction (from baseline)” value [11] was 0%, the “% sUA reduction (from baseline), Mean (3-8)” value (shortened to “% sUA reduction … (3-8)”) [11] was 0% and the “Absolute sUA concentration, Mean (3-8)” value [11] was 6.5 mg/dL. The “% sUA reduction (from baseline)” value [12] was −24.3% and −13.9% and −14.3% and −13.1% and −27.9% and −22.0%, the “% sUA reduction … (3-8)” value [12] was −19.3% and the “Absolute sUA concentration, Mean (3-8)” value [12] was 5.3 mg/dL. The “% sUA reduction (from baseline)” value [13] was −36.5% and −16.7% and −19.0% and −13.1% and −37.7% and −32.2%, the “% sUA reduction … (3-8)” value [13] was −25.9% and the “Absolute sUA concentration, Mean (3-8)” value [13] was 4.8 mg/dL. The “% sUA reduction (from baseline)” value [14] was −25.7% and −11.1% (2×) and 0.0% and −26.2% and −16.9%, the “% sUA reduction … (3-8)” value [14] was −15.2% and the “Absolute sUA concentration, Mean (3-8)” value [14] was 5.5 mg/dL. For the same compound, the “% sUA reduction (from baseline)” value [15] was −29.7% and −16.7% and −17.5% and −8.2% and −36.1% and −28.8%, the “% sUA reduction … (3-8)” value [15] was −22.8% and the “Absolute sUA concentration, Mean (3-8)” value [15] was 5.0 mg/dL. For the same compound, the “% sUA reduction (from baseline)” value [16] was −32.4% and −23.6% and −14.3% and −14.8% and −41.0% and −32.2%, the “% sUA reduction … (3-8)” value [16] was −26.4% and the “Absolute sUA concentration, Mean (3-8)” value [16] was 4.8 mg/dL. For the same compound, the “% sUA reduction (from baseline)” value [17] was −27.0% and −11.1% and −9.5% and −11.5% and −31.1% and −20.3%, the “% sUA reduction … (3-8)” value [17] was −18.4% and the “Absolute sUA concentration, Mean (3-8)” value [17] was 5.3 mg/dL. For the same compound, the “% sUA reduction (from baseline)” value [18] was −31.1% and −18.1% and −15.9% and −16.4% and −32.8% and −28.8%, the “% sUA reduction … (3-8)” value [18] was −23.9% and the “Absolute sUA concentration, Mean (3-8)” value [18] was 5.0 mg/dL. For the same compound, the “% sUA reduction (from baseline)” value [19] was −28.4% and −22.2% and −20.6% and −21.3% and −32.8% and −28.8%, the “% sUA reduction … (3-8)” value [19] was −25.7% and the “Absolute sUA concentration, Mean (3-8)” value [19] was 4.8 mg/dL. For the same compound, the “% sUA reduction (from baseline)” value [20] was −21.6% and −15.3% and −12.7% and −13.1% and −26.2% and −23.7%, the “% sUA reduction … (3-8)” value [20] was −18.8% and the “Absolute sUA concentration, Mean (3-8)” value [20] was 5.3 mg/dL. The “% sUA reduction (from baseline)” value [21] was 0%, the “% sUA reduction … (3-8)” value [21] was 0% and the “Absolute sUA concentration, Mean (3-8)” value [21] was 6.0 mg/dL. For the same compound, the “% sUA reduction (from baseline)” value [22] was −36.2% and −31.8% and −25.0% and −22.8% and −30.0%, the “% sUA reduction … (3-8)” value [22] was −29.2% and the “Absolute sUA concentration, Mean (3-8)” value [22] was 4.1 mg/dL. For the same compound, the “% sUA reduction (from baseline)” value [23] was −40.6% and −37.9% and −29.2% and −25.0% and −22.8%, the “% sUA reduction … (3-8)” value [23] was −32.2% and the “Absolute sUA concentration, Mean (3-8)” value [23] was 4.0 mg/dL. The “% sUA reduction … (3-8)” value [24] was −17.2%, the “Absolute sUA concentration, Mean (3-8)” value [24] was 4.9 mg/dL and the “% sUA reduction … (3-8)” value [25] was −25.6%. The “Absolute sUA concentration, Mean (3-8)” value [25] was 4.4 mg/dL, the “% sUA reduction … (3-8)” value [26] was −29.1% and the “Absolute sUA concentration, Mean (3-8)” value [26] was 4.2 mg/dL. For the same compound, the “% sUA reduction (from baseline)” value [27] was −31.9% and −30.3% and −23.1% and −23.3% and −14.0% and −27.5% and the “% sUA reduction … (3-8)” value [27] was −25.0%.
